These results are taken from ChEMBL document CHEMBL1151106, “Chemical studies on mexican plants used in traditional medicine, VI. Additional new 4-phenylcoumarins from Exostema caribaeum” (1988).

What is called MIC is the lowest concentration found to suppress growth. Low values mean greater potency, high ones weaker potency.

The experiment has as its system Candida albicans. The experiment is described as follows: Antifungal activity against Candida albicans. The experiment is classed as functional.

In brackets after ≈: the same amount, converted by molar mass. Activity calls are given as the source filed them. The rule behind the calls is not given here.

As for `COc1cc(O[C@@H]2O[C@H](CO)[C@@H](O)[C@H](O)[C@H]2O)c2c(-c3ccc(O)c(O)c3)cc(=O)oc2c1`, the result was Active.

For `COc1cc(O[C@@H]2O[C@H](COC(C)=O)[C@H](O)[C@H](O)[C@H]2O)c2c(-c3ccc(O)c(O)c3)cc(=O)oc2c1`, the result was Active.

Regarding `COc1cc2c3c(cc(=O)oc3c1)-c1cc(O)c(OC)cc1O2`, the result was inactive.

With `COc1cc(O)c2c(-c3ccc(O)c(O)c3)cc(=O)oc2c1`, the result was inactive.

As for `COc1ccc(-c2cc(=O)oc3cc(OC)cc(O[C@@H]4O[C@H](CO)[C@H](O)[C@H](O)[C@H]4O)c23)cc1`, the result was Active.

Consider `COc1cc(O)c2c(-c3ccc(OC)c(O)c3)cc(=O)oc2c1`, for which the outcome was Active.

For the compound `COc1cc(O[C@@H]2O[C@H](CO)[C@H](O)[C@H](O)[C@H]2O)c2c(-c3ccc(O)c(O)c3)cc(=O)oc2c1`, the MIC is 12.5 mg/L (≈ 27 µM).
